In US20250381165A1, “Method of Use for Benzofuran Compounds” (Tampa Bay Research Institute, Inc., priority 2024, published 2025):

What was measured:
[1] = system: splenocytes (B3Z activation); test: In vivo SIINFEKL loading, splenocytes used ex vivo to activate B3Z; set-up: species or system C57BL/6NCrl mice
Description: Six- to ten-week-old male and female C57BL/6NCrl mice (Charles River Laboratories, Wilmington MA; cat. no. 027) were used for all animal studies. The mice were maintained in accord with the NIH Guide for the Care and Use of Laboratory Animals. Experimental procedures were performed in accord with research protocols approved by the Tampa Bay Research Institute's Institutional Animal Care and Use Committee. Mice were maintained in an INOVIVE individually ventilated cage system with 3 mice per cage containing 100% virgin wood pulp bedding (Harlan Teklad™, Harlan Sprague Dawley Inc., Indianapolis, IA; cat. n.o 7099). Water and food (Harlan Teklad™; cat. no. 8640) were available ad libitum. The mice were maintained on a cycle of 12 h of light and 12 h of dark in an environment with a temperature of 74-76° […]. and 40-60% humidity. All cages underwent 40 air changes hourly in the negative pressure mode, in accordance with manufacturer's recommendations. Both the intake and exhaust air from the system were filtered through HEPA filters to maintain a clean environment. Stock solutions of BzFβ were solubilized in alkaline water (pH 10) and then sterile filtered through 0.22 µm syringe filters. BzFβ used for iv or im injections was diluted in 0.9% saline (normal saline). The stock solutions of the SIINFEKL peptide were prepared in 1× calcium/magnesium free Dulbecco's phosphate-buffered saline (DPBS; ThermoFisher Scientific, cat. no. 14190144).
Since the oral route of drug delivery is preferred, various doses of BzFβ (1, 2, 4 mg) were administered by oral gavage, immediately following an iv injection of 50 μg SIINFEKL peptide. One-hour post-treatment the blood and spleens from each mouse was collected. […] The cell count was determined using the MUSE cell viability kit (MCH600103) and MUSE Cell Analyzer (Luminex Corp, Austin TX).
One hour later the splenocytes were isolated and immediately tested for peptide loading or used to activate B3Z cells. […] The colorimetric response was allowed to develop for 15-240 min and the OD 560 nm was measured at various time points using a Synergy HTX plate reader. […]

[2] = target: T1, MHCI/SIINFEKL complex on DC2.4 (Mus musculus, UniProt P01901); test: Displacement of SIINFEKL from DC2.4 after peptide pulse; type: cell-based, murine; conditions: 25 μg/mL BzFβ after 1 h pulse 30 nM SIINFEKL; p<0.0001
T1 construct: DC2.4 are a C57Bl/6 lineage murine cell line and as such they express MHC class I H-2Kb and H-2Db; endogenous in cells; host or cells: DC2.4 (murine dendritic cell line, from Dr. Kenneth Rock)
T1 sequence (P01901 22-369): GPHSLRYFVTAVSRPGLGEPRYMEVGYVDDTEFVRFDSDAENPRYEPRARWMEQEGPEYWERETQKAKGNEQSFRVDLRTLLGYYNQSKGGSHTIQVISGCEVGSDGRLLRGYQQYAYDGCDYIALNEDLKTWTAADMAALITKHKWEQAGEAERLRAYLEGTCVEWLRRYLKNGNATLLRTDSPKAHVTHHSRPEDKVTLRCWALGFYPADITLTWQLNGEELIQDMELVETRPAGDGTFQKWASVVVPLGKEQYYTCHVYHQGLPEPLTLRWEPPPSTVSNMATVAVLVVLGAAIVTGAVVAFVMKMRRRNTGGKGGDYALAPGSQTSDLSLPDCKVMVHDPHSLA
T1 sequence (P01887 21-119 partner): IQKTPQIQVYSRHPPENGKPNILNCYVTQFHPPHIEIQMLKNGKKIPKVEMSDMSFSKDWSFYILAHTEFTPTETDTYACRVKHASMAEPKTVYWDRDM

SMILES: O=C(O)/C=C/c1ccc2occc2c1 [BzFβ, (2E)-3-(1-benzofuran-5-yl)prop-2-enoic acid]
- ability of splenocytes to activate B3Z, three routes ([1]; gavage 1 mg, iv 50 μg or im 100 μg after iv 50 μg SIINFEKL, 1 h): successful at enhancing the ability of the splenocytes to activate B3Z
- B3Z response, comparison of routes ([1]; iv 50 μg BzFβ): greatest response
- B3Z response to splenocytes versus peptide alone ([1]; oral gavage 1, 2, 4 mg after iv 50 μg SIINFEKL, 1 h): significantly greater response
- MHCI/SIINFEKL complex staining versus untreated cells [2]: significantly reduced
